Values joined by “and” are separate entries in the source; they are usually repeats but may differ in a detail not shown here. Equal entries are not always repeated.
Tested on: OVCAR-5 complex spheroids with HUVEC/MSC, viability, % test/control
Assay: Anticancer human tumor OVCAR-5 cell line growth inhibition [AhR];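 also: spheroids exposed to compounds for 7 days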;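 as to viability, T/C: 100% = DMSO vehicle control wells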
Details: for viability, T/C: stronger effect = lower value
How it was run: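 Spheroids combined tumor cells with HUVEC endothelial cells and human MSCs as stroma. AhR antagonists were paired with standard or investigational drugs, each dosed in half-log steps down from near clinical Cmax, or from 10 microM where Cmax was unknown.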

[1] = curve of first compound, second compound 0.1 µM
[2] = curve of first compound, second compound 0.316 µM
[3] = curve of first compound, second compound 1 µM
[4] = curve of first compound, second compound 3.16 µM
[5] = curve of first compound, second compound 10 µM
[6] = second compound 0.1 µM, first compound 0.000949 µM
[7] = second compound 0.1 µM, first compound 0.003 µM
[8] = second compound 0.1 µM, first compound 0.00949 µM
[9] = second compound 0.1 µM, first compound 0.03 µM
[10] = second compound 0.1 µM, first compound 0.0949 µM
[11] = second compound 0.1 µM, first compound 0.3 µM
[12] = second compound 0.316 µM, first compound 0.000949 µM
[13] = second compound 0.316 µM, first compound 0.003 µM
[14] = second compound 0.316 µM, first compound 0.00949 µM
[15] = second compound 0.316 µM, first compound 0.03 µM
[16] = second compound 0.316 µM, first compound 0.0949 µM
[17] = second compound 0.316 µM, first compound 0.3 µM
[18] = second compound 1 µM, first compound 0.000949 µM
[19] = second compound 1 µM, first compound 0.003 µM
[20] = second compound 1 µM, first compound 0.00949 µM
[21] = second compound 1 µM, first compound 0.03 µM
[22] = second compound 1 µM, first compound 0.0949 µM
[23] = second compound 1 µM, first compound 0.3 µM
[24] = second compound 3.16 µM, first compound 0.000949 µM
[25] = second compound 3.16 µM, first compound 0.003 µM
[26] = second compound 3.16 µM, first compound 0.00949 µM
[27] = second compound 3.16 µM, first compound 0.03 µM
[28] = second compound 3.16 µM, first compound 0.0949 µM
[29] = second compound 3.16 µM, first compound 0.3 µM
[30] = second compound 10 µM, first compound 0.000949 µM
[31] = second compound 10 µM, first compound 0.003 µM
[32] = second compound 10 µM, first compound 0.00949 µM
[33] = second compound 10 µM, first compound 0.03 µM
[34] = second compound 10 µM, first compound 0.0949 µM
[35] = second compound 10 µM, first compound 0.3 µM

Structure (SMILES): CCc1c2c(nc3ccc(O)cc13)-c1cc3c(c(=O)n1C2)COC(=O)[C@]3(O)CC + Cc1ccccc1N=Nc1ccc(NC(=O)c2ccnn2C)c(C)c1
- IC50 [1]: 0.00695 µM
- IC50 [2]: 0.0082 µM
- IC50 [3]: 0.00943 µM
- IC50 [4]: 0.00946 µM
- IC50 [5]: 0.0105 µM
- viability, T/C [6]: 85.7%
- viability, T/C [7]: 64.3%
- viability, T/C [8]: 37.1%
- viability, T/C [9]: 36.9%
- viability, T/C [10]: 22.5%
- viability, T/C [11]: 7.67%
- viability, T/C [12]: 87.4%
- viability, T/C [13]: 70.3%
- viability, T/C [14]: 39.2%
- viability, T/C [15]: 37%
- viability, T/C [16]: 18.7%
- viability, T/C [17]: 6.8%
- viability, T/C [18]: 91.3%
- viability, T/C [19]: 73.4%
- viability, T/C [20]: 40.8%
- viability, T/C [21]: 38.3%
- viability, T/C [22]: 20.9%
- viability, T/C [23]: 7.02%
- viability, T/C [24]: 95.9%
- viability, T/C [25]: 70.7%
- viability, T/C [26]: 45.4%
- viability, T/C [27]: 38.1%
- viability, T/C [28]: 18.4%
- viability, T/C [29]: 7.44%
- viability, T/C [30]: 89.5%
- viability, T/C [31]: 65.9%
- viability, T/C [32]: 45.9%
- viability, T/C [33]: 42.1%
- viability, T/C [34]: 21.5%
- viability, T/C [35]: 8.22%

Structure (SMILES): CC(C)CC(NC(=O)C(Cc1ccccc1)NC(=O)c1cnccn1)B(O)O (configuration not stated) + CC(CO)NC(=O)c1cc(-c2ccc(Cl)cc2)nn(-c2cnn(C)c2)c1=O
- IC50 [1]: 0.0233 µM
- IC50 [2]: 0.0238 µM
- IC50 [3]: 0.0242 µM
- IC50 [4]: 0.0221 µM
- IC50 [5]: 0.0203 µM
- viability, T/C [6]: 101%
- viability, T/C [7]: 111%
- viability, T/C [8]: 90.8%
- viability, T/C [9]: 38.2%
- viability, T/C [10]: 18.2%
- viability, T/C [11]: 11%
- viability, T/C [12]: 104%
- viability, T/C [13]: 112%
- viability, T/C [14]: 89.6%
- viability, T/C [15]: 39.1%
- viability, T/C [16]: 20%
- viability, T/C [17]: 8.57%
- viability, T/C [18]: 107%
- viability, T/C [19]: 111%
- viability, T/C [20]: 95%
- viability, T/C [21]: 39.1%
- viability, T/C [22]: 20.5%
- viability, T/C [23]: 11.5%
- viability, T/C [24]: 96%
- viability, T/C [25]: 105%
- viability, T/C [26]: 87.3%
- viability, T/C [27]: 36%
- viability, T/C [28]: 20%
- viability, T/C [29]: 12.4%
- viability, T/C [30]: 88.3%
- viability, T/C [31]: 97.7%
- viability, T/C [32]: 79.4%
- viability, T/C [33]: 34.4%
- viability, T/C [34]: 22.4%
- viability, T/C [35]: 13.7%

Structure (SMILES): NS(=O)(=O)OCC1CC(n2ccc3c(NC4CCc5ccccc54)ncnc32)CC1O (configuration not stated)
- viability, T/C (compound 0.0316 µM): 99.8% and 98.4% and 111%
- viability, T/C (compound 0.1 µM): 74.2% and 68.1% and 75%
- viability, T/C (compound 0.316 µM): 41.8% and 38.4% and 42.8%
- viability, T/C (compound 1 µM): 21.2% and 16.9% and 19.1%
- viability, T/C (compound 3.16 µM): 14.8% and 11.5% and 13%
- viability, T/C (compound 10 µM): 11.8% and 9.65% and 11.2%
- IC50 (curve of compound): 0.235 µM and 0.197 µM

Structure (SMILES): CC[C@@]1(O)C(=O)OCc2c1cc1n(c2=O)Cc2cc3c(CN(C)C)c(O)ccc3nc2-1 + Cc1ccccc1N=Nc1ccc(NC(=O)c2ccnn2C)c(C)c1
- IC50 [1]: 0.0229 µM
- IC50 [2]: 0.0243 µM
- IC50 [3]: 0.0253 µM
- IC50 [4]: 0.0275 µM
- IC50 [5]: 0.0282 µM
- viability, T/C (second compound 0.1 µM, first compound 0.000316 µM): 103%
- viability, T/C (second compound 0.1 µM, first compound 0.001 µM): 102%
- viability, T/C (second compound 0.1 µM, first compound 0.00316 µM): 94%
- viability, T/C (second compound 0.1 µM, first compound 0.01 µM): 79.2%
- viability, T/C (second compound 0.1 µM, first compound 0.0316 µM): 34.7%
- viability, T/C (second compound 0.1 µM, first compound 0.1 µM): 42.4%
- viability, T/C (second compound 0.316 µM, first compound 0.000316 µM): 105%
- viability, T/C (second compound 0.316 µM, first compound 0.001 µM): 103%
- viability, T/C (second compound 0.316 µM, first compound 0.00316 µM): 96%
- viability, T/C (second compound 0.316 µM, first compound 0.01 µM): 84.6%
- viability, T/C (second compound 0.316 µM, first compound 0.0316 µM): 36.5%
- viability, T/C (second compound 0.316 µM, first compound 0.1 µM): 42.7%
- viability, T/C (second compound 1 µM, first compound 0.000316 µM): 112%
- viability, T/C (second compound 1 µM, first compound 0.001 µM): 108%
- viability, T/C (second compound 1 µM, first compound 0.00316 µM): 104%
- viability, T/C (second compound 1 µM, first compound 0.01 µM): 89.3%
- viability, T/C (second compound 1 µM, first compound 0.0316 µM): 38.7%
- viability, T/C (second compound 1 µM, first compound 0.1 µM): 42.4%
- viability, T/C (second compound 3.16 µM, first compound 0.000316 µM): 113%
- viability, T/C (second compound 3.16 µM, first compound 0.001 µM): 110%
- viability, T/C (second compound 3.16 µM, first compound 0.00316 µM): 108%
- viability, T/C (second compound 3.16 µM, first compound 0.01 µM): 92%
- viability, T/C (second compound 3.16 µM, first compound 0.0316 µM): 41%
- viability, T/C (second compound 3.16 µM, first compound 0.1 µM): 47.4%
- viability, T/C (second compound 10 µM, first compound 0.000316 µM): 100%
- viability, T/C (second compound 10 µM, first compound 0.001 µM): 104%
- viability, T/C (second compound 10 µM, first compound 0.00316 µM): 101%
- viability, T/C (second compound 10 µM, first compound 0.01 µM): 89%
- viability, T/C (second compound 10 µM, first compound 0.0316 µM): 40.9%
- viability, T/C (second compound 10 µM, first compound 0.1 µM): 50.4%

From PubChem BioAssay AID1919015 (Molecular Pharmacology Branch, DTP, NCI, 2023)
